According to ChEMBL document CHEMBL1201862, “PubChem BioAssay data set” (2004):
Activity calls are given as the source filed them.

Experiments:
[1] = target: Large T antigen (Simian virus 40, UniProt P03070); type: functional, Betapolyomavirus macacae;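 note: Confirmatory-stage PubChem screen for compounds that inhibit SV40 T antigen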
[2] = THP-1 cell cytotoxicity, dose response, cytotoxicity control for Vif-APOBEC3G degradation inhibitor project, THP-1 cells (AID 1117359); type: functional; conditions: Human immunodeficiency virus 1, THP-1
[3] = target: Eukaryotic translation initiation factor 4E (Mus musculus, UniProt P63073); experiment: eIF4E–eIF4G protein interaction inhibitors, dose response, biochemical, TR-FRET (AID 855); type: functional;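 note: potency for disrupting eIF4E binding to eIF4GI seen as loss of FRET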
Eukaryotic translation initiation factor 4E, sequence (P63073 whole entry): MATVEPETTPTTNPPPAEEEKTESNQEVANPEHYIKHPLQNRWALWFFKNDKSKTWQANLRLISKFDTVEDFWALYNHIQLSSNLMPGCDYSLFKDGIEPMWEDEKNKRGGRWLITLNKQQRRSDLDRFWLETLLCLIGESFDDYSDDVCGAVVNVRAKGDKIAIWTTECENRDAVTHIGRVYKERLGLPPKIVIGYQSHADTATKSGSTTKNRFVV

[4] = THP-1 cell cytotoxicity, dose response, cytotoxicity control for non-replicating M. tuberculosis project (AID 489025); type: functional
[5] = cells; type: functional
[6] = target: Induced myeloid leukemia cell differentiation protein Mcl-1 (Homo sapiens, UniProt Q07820); type: functional
Induced myeloid leukemia cell differentiation protein Mcl-1, sequence (Q07820 whole entry): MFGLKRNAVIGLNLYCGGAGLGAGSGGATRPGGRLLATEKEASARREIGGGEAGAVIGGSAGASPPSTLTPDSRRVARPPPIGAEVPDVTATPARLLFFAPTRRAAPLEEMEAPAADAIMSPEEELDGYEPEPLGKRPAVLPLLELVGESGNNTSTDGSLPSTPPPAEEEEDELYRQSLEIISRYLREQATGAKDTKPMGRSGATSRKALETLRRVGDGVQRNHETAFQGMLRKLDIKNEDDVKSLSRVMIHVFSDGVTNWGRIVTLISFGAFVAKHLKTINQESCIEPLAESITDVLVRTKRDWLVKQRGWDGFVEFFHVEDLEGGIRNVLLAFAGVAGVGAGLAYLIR

[7] = target: Prothrombin (Homo sapiens, UniProt P00734); experiment: Thrombin 1536 HTS Dose Response Confirmation. [Related pubchem assays: 1046 (Thrombin 1536 HTS; hits were confirmed in this assay)]; type: functional
[8] = target: T1, Leucine aminopeptidase (Plasmodium falciparum 3D7, UniProt Q8IL11); experiment: P. falciparum M17LAP inhibitors, primary screen, biochemical, fluorogenic H-Leu-NHMec substrate, 1536-well (AID 1619); type: functional
T1 sequence (Q8IL11 whole entry): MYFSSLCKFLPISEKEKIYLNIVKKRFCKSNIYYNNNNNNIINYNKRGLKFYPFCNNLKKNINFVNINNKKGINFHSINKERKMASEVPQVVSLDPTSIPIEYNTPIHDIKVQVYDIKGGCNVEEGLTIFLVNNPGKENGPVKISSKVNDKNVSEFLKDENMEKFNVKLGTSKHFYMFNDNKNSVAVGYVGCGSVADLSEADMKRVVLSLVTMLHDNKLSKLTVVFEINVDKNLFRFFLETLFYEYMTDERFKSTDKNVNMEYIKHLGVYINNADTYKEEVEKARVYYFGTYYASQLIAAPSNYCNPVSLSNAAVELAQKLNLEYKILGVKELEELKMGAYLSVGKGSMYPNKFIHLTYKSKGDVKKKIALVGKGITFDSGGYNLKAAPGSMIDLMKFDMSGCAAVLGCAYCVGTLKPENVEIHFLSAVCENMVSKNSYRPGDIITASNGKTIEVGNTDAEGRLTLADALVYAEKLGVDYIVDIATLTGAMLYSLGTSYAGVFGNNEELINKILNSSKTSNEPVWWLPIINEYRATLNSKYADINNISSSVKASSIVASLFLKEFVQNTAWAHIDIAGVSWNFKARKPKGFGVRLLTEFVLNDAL

[9] = cytotoxicity in HEK-293T cells, dose response, cytotoxicity control for TCR NF-kB inhibitor project, luminescence, T-cell screen hits (AID 489026); type: functional, cell-based;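 note: cells exposed to compound about 14 hours before the viability readout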
[10] = target: FAD-linked sulfhydryl oxidase ALR (Homo sapiens, UniProt P55789); experiment: inhibitors of human ALR sulfhydryl oxidase, dose response, biochemical, H2O2 detection, luminescence, cherry-pick (AID 493248)
FAD-linked sulfhydryl oxidase ALR, sequence (P55789 whole entry): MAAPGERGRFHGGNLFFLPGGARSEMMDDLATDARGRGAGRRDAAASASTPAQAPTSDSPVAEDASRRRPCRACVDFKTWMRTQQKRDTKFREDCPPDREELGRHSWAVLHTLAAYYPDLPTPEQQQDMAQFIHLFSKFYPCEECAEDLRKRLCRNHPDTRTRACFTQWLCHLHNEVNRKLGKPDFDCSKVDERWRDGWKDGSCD

[11] = target: T2, Histone-lysine N-methyltransferase NSD2 (Homo sapiens, UniProt O96028); type: biochemical
T2 sequence (O96028 whole entry): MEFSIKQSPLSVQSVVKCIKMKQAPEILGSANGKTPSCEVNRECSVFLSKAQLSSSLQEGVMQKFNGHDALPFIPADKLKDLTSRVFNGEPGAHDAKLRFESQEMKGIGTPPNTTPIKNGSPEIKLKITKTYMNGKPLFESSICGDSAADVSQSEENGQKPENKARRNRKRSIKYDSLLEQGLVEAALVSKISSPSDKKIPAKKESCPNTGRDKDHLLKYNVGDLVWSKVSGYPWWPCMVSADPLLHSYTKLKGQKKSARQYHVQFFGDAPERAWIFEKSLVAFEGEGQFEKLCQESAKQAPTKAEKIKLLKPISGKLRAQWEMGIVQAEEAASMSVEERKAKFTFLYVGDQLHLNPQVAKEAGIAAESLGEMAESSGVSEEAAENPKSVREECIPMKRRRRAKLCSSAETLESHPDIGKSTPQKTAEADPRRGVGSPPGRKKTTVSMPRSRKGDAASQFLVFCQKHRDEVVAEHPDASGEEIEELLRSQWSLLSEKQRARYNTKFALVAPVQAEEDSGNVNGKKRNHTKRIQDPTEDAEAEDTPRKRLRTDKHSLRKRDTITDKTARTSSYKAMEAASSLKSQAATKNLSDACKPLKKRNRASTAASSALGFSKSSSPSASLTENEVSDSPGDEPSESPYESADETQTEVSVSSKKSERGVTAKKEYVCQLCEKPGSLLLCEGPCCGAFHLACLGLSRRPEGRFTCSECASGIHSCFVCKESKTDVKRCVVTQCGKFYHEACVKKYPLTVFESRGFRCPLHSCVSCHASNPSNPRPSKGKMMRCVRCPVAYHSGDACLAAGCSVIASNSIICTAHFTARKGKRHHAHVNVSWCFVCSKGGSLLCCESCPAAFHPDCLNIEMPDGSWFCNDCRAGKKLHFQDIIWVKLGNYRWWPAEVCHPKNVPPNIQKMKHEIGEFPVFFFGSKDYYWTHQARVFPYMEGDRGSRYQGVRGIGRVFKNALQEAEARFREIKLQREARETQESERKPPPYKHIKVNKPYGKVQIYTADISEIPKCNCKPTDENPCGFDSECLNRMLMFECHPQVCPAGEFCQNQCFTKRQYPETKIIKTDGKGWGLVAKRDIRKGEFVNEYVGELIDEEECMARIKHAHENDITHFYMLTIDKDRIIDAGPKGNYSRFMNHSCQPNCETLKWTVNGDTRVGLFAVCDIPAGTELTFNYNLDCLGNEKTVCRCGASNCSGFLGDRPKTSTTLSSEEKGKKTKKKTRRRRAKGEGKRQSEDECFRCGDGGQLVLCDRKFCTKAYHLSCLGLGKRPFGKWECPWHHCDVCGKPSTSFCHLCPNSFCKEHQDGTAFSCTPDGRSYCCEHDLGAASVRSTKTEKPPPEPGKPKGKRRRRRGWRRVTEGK

[12] = Luminescence Cell-Based Dose Response HTS to Identify Activators of Luciferase Translation or Activity in H4 […] Cells. [Related pubchem assays: 1829 (Project Summary), 1814 (Primary HTS)]; type: functional
[13] = tested on: H4; experiment: Luminescence Cell-Based Dose Response HTS to Identify Activators of 5'UTR Stem-Loop Driven Prion Protein mRNA Translation in H4 Neuroglioblastoma Cells. [Related pubchem assays: 1829 (Project Summary), 1814 (Primary HTS)]; type: functional; conditions: Homo sapiens
[14] = target: Peroxisome proliferator-activated receptor gamma/Nuclear receptor coactivator 1 (Homo sapiens, UniProt P37231); experiment: (§1) TR-FRET dose response biochemical High Throughput Screening assay for agonists of the steroid receptor coactivator 1 (SRC-1) recruitment by the peroxisome proliferator-activated receptor gamma (PPAR gamma): non-selective agonists. [Related pubchem assays (depositor defined):AID1300, AID1808, AID504735, AID631]; type: protein assay
[15] = target: Peroxisome proliferator-activated receptor gamma/Nuclear receptor coactivator 3 (Homo sapiens, UniProt P37231); experiment: as §1, with “3 (SRC-3)” for “1 (SRC-1)”, “assays: 1301 (Confirmation screen.), 1048 (Primary screen.)]” for “assays (depositor defined):AID1300, AID1808, AID504735, AID631]”; type: functional
Peroxisome proliferator-activated receptor gamma/Nuclear receptor coactivator 3, sequence (P37231 whole entry): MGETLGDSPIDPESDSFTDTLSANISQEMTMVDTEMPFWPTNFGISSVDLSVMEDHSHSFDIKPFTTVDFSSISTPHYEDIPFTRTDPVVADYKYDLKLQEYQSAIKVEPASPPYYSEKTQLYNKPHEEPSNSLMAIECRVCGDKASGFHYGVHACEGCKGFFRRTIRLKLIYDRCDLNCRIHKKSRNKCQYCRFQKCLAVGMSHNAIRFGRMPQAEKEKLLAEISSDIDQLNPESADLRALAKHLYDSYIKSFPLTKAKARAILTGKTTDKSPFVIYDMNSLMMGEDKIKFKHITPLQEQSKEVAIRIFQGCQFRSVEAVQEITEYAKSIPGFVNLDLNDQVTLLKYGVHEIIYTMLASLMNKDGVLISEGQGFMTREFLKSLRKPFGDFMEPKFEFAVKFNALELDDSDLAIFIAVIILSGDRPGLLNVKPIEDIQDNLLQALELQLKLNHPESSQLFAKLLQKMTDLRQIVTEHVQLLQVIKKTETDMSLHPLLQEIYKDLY
Peroxisome proliferator-activated receptor gamma/Nuclear receptor coactivator 3, sequence (Q9Y6Q9 whole entry, further chain): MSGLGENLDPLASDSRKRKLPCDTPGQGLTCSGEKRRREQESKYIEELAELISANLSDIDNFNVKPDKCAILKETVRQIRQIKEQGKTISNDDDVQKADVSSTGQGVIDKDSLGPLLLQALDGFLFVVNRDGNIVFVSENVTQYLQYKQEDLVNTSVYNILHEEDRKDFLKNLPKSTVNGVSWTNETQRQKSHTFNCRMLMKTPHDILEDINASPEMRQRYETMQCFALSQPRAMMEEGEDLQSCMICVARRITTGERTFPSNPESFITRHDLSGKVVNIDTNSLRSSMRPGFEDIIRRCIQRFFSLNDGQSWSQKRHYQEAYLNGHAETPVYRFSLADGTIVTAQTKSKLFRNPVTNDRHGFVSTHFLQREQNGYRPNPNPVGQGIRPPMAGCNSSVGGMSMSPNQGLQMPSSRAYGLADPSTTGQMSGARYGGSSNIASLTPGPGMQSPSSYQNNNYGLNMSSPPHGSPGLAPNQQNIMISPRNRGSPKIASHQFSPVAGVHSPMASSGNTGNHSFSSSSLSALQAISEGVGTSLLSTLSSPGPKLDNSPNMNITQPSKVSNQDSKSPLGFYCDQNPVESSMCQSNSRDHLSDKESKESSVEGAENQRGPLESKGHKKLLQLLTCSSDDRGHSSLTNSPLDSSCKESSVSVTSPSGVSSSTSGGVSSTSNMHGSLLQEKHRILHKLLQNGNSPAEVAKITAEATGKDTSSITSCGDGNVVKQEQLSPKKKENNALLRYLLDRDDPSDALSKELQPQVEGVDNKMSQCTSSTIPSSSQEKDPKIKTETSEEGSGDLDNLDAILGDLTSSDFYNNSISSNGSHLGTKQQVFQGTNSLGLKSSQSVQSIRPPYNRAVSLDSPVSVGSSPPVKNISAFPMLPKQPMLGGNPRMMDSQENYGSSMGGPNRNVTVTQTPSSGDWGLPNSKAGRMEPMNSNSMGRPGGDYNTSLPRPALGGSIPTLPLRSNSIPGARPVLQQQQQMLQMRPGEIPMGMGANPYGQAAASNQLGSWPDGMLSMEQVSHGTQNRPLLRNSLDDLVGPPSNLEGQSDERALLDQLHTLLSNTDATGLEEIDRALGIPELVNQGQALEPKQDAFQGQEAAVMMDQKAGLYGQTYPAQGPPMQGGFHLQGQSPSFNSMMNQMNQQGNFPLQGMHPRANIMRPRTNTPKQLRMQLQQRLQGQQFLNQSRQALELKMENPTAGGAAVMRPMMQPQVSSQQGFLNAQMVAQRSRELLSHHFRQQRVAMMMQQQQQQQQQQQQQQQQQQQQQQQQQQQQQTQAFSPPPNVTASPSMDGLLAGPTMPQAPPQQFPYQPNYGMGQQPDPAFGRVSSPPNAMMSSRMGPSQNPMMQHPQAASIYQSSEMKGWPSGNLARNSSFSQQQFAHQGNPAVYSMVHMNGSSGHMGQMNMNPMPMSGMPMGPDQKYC

[16] = target: Peroxisome proliferator-activated receptor gamma/Nuclear receptor coactivator 2 (Homo sapiens, UniProt P37231); experiment: TR-FRET dose response biochemical High Throughput Screening assay for agonists of the steroid receptor coactivator 2 (SRC-2) recruitment by the peroxisome proliferator-activated receptor gamma (PPAR gamma): non-selective agonists. [Related pubchem assays: 1297, 1032 ]; type: functional
[17] = tested on: Streptococcus sp. 'group A'; experiment: growth inhibition of control SK(-) GAS strain, dose response, counter-screen for streptokinase expression inhibitor project, luminescence, kanamycin, BacTiterGlo, confirmation (AID 1900); type: functional, organism-based
[18] = target: T3, Streptokinase A (Streptococcus pyogenes serotype M1, UniProt P10520); experiment: S. pyogenes streptokinase expression inhibitors, potency, dose response, plasminogen activation absorbance, OD405 (AID 1914); type: functional, Streptococcus pyogenes M1 GAS;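 note: secreted streptokinase activity via plasminogen activation per viability signal from cell pellet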
T3 sequence (P10520 whole entry): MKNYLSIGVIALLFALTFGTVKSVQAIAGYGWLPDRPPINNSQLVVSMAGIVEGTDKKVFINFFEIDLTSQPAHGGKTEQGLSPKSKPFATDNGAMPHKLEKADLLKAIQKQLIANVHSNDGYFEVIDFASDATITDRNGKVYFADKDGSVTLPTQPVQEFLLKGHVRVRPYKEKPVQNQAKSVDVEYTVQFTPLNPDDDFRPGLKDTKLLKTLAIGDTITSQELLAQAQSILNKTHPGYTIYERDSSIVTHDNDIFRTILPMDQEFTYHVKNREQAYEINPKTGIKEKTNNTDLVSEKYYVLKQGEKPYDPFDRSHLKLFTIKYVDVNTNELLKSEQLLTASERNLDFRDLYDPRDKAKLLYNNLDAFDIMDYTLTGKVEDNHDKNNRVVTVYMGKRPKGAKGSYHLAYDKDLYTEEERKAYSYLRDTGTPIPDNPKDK

[19] = tested on: Streptococcus; experiment: Group A Streptococcus viability loss, dose response, counter-screen for streptokinase expression inhibitor project, luminescence, BacTiterGlo (AID 1915); type: functional, organism-based;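 note: potency for reduction of bacterial viability or growth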
[20] = target: Beta-galactosidase (Escherichia coli, UniProt Q8VNN2); experiment: beta-galactosidase enzyme inhibitors and activators, dose response, artefact control for CCR6 antagonist project, biochemical, E. coli enzyme, set 3 (AID 504712); type: functional
Beta-galactosidase, sequence (Q8VNN2 whole entry): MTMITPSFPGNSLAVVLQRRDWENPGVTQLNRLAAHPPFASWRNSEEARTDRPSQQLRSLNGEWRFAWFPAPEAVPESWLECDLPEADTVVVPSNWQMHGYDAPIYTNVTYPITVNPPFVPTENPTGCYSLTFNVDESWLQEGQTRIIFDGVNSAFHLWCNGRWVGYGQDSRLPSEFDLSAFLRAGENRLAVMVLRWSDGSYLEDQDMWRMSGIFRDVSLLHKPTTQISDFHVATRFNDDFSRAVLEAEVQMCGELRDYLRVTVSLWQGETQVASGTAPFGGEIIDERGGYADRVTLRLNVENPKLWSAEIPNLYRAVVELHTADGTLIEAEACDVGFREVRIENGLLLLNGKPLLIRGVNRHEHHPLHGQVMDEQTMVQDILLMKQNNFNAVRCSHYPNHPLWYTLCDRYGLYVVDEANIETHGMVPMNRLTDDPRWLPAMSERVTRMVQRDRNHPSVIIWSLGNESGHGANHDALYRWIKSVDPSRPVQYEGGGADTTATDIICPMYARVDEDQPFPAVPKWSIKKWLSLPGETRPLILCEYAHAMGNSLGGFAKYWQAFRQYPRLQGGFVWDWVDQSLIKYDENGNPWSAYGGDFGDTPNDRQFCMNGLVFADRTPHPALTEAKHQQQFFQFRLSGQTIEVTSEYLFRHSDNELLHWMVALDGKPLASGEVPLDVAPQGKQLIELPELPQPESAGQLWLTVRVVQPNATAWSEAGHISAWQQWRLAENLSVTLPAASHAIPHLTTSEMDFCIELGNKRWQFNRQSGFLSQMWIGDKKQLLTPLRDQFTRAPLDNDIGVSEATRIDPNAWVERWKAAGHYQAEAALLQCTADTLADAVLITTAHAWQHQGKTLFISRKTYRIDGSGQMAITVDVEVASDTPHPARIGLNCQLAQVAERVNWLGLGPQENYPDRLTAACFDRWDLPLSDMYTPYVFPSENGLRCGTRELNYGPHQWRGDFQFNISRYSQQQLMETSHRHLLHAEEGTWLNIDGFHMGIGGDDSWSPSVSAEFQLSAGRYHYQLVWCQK

[21] = target: Paired box protein Pax-8 (Homo sapiens, UniProt Q06710); experiment: inhibitors of PAX8-driven TPO luciferase reporter, dose response, RMG-I cells, cherry-pick (AID 687027); type: functional, cell-based;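 note: luciferase reporter driven by Pax8 target thyroperoxidase promoter measured by SteadyGlo luminescence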
Paired box protein Pax-8, sequence (Q06710 whole entry): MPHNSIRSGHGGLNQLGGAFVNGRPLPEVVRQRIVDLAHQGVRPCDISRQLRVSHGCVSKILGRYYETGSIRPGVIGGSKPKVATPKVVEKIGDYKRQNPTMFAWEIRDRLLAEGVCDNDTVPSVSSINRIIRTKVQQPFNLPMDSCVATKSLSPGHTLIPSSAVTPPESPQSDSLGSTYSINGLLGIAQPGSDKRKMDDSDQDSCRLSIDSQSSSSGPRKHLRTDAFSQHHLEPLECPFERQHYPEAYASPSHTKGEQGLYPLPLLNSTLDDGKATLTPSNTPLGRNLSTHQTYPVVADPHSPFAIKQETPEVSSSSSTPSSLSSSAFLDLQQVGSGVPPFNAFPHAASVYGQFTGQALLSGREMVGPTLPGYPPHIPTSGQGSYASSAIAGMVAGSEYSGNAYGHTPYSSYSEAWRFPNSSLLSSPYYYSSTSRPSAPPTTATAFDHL

[22] = inhibitors of PGC1a acetylation in cells, dose response, cell-based, cherry-picked samples (AID 720514); type: functional;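 note: potency may reflect raised or lowered acetylation signal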
[23] = P. falciparum Dd2 growth inhibitors, dose response, SYBR Green, cherry-picked samples (AID 1159567); type: functional, cell-based
[24] = HepG2 cell cytotoxicity, dose response, cytotoxicity control, cherry-picked samples (AID 1159577); type: functional, cell-based
[25] = target: T4, Rac GTPase-activating protein 1 (Homo sapiens, UniProt Q9H0H5); experiment: MgcRacGAP GTPase-activating activity inhibitors, confirmation, biochemical, ADP Hunter fluorescence, primary and confirmatory (AID 624330); type: functional
T4 sequence (Q9H0H5 whole entry): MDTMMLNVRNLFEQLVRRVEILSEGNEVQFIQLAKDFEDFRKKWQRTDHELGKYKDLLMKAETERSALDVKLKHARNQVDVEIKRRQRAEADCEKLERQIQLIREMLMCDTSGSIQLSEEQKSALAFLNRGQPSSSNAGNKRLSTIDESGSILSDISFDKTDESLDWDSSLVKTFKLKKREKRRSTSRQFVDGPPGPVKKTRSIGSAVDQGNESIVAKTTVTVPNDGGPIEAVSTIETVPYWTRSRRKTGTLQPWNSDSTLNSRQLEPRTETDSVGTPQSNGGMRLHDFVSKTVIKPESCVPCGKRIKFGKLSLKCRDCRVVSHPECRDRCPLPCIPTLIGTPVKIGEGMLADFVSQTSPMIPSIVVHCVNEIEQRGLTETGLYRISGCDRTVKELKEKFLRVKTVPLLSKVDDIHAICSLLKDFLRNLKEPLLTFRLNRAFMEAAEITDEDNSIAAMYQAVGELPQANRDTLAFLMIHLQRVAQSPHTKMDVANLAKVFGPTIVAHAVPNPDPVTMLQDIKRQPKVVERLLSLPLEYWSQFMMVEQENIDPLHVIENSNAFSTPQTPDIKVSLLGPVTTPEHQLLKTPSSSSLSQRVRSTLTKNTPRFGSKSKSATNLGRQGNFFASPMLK

Large T antigen, sequence (P03070 whole entry): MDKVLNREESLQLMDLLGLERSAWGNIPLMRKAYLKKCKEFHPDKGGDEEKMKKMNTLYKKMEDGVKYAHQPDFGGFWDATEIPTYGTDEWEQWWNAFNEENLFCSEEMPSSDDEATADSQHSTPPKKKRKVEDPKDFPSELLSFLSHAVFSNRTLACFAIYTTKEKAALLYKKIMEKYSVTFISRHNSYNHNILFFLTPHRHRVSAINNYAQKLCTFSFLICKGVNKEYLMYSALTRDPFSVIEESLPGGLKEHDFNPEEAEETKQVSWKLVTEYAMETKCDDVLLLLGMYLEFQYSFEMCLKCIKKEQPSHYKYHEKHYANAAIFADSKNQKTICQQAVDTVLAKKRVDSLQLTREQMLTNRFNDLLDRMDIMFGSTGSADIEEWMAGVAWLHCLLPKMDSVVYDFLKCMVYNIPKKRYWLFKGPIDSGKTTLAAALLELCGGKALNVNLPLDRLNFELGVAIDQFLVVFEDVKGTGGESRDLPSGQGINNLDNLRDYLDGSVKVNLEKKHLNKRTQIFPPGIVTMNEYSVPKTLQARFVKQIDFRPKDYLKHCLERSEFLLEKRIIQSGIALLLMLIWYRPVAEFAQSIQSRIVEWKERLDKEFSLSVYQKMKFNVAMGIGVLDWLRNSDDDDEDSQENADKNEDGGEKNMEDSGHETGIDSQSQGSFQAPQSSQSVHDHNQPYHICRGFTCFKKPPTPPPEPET

COc1ccc2c(c1OC)C(=O)N(c1ccc(O)cc1)C2
IC50 [1]: > 100 µM (active)

CC(C(=O)NCC1CCCCC1)N(C)Cc1ccc(Br)cc1 (stereo not drawn)
CC50 [2]: > 40 µM (active)

Cc1ccc(CN(Cc2ccccc2)C(S)=NCC(=O)N2CCC3(CC2)OCCO3)o1
IC50 [3]: 50 µM (inactive)

c1ccc(CNCCC(Cc2ccccc2)c2ccco2)cc1 (stereo not drawn)
CC50 [4]: > 40 µM (active)
IC50 [5]: > 50 µM (active)

N#Cc1cc(-c2ccccc2)nn1-c1ccccc1
IC50 [6]: 1.44 µM (active)
IC50 [3]: > 64 µM (inactive)

O=C(Cn1nc(C(F)F)cc1C(F)F)NNC(=S)Nc1ccc(F)cc1
IC50 [7]: > 50 µM (not active)

CCN(CC)S(=O)(=O)c1ccc2c(c1)c(=O)c(C(=O)NCc1ccc3c(c1)OCO3)cn2C
IC50 [7]: 0.852 µM (active)

COc1ccccc1-c1nnc2n1N=C(c1ccc(O)c(O)c1)CS2
IC50 [8]: 39.2 µM (active)
IC50 [9]: > 80 µM (inactive)
AC50 [10]: 1.97 µM (active)
AC50 [11]: 12.4 µM (active)

CCCCn1nnc(N(C(=O)c2cccs2)C(=O)c2cccs2)n1
EC50 [12]: 12.6 µM (active)
EC50 [13]: > 120 µM (not active)
IC50 [7]: 0.88 µM (active)

CCCCN(CC)C(=O)CSc1cc(=O)n(C)c2ccccc12
EC50 [14]: > 79.4 µM (inactive)
EC50 [15]: > 79.4 µM (not active)
EC50 [16]: > 79.4 µM (not active)

Cc1cc(C)c(C)c(OCCCOc2cccc3cccnc23)c1
EC50 [17]: 13.1 µM (active)
EC50 [18]: > 150 µM (not active)
EC50 [19]: 39.4 µM (active)
CC50 [2]: 15.4 µM (active)

CCOc1cccc(C(=O)NC(=S)Nc2cccc(C)c2)c1
IC50 [20]: > 66.6 µM (inactive)

CNCCCCOc1ccccc1-c1ccccc1
AC50 [11]: > 20 µM (inactive)

Oc1n[nH]c(CSCc2ccccc2Cl)n1
IC50 [3]: > 64 µM (inactive)

O=C(Cc1ccccc1)n1nc(-c2ccccc2)nc1NCc1ccco1
IC50 [7]: 0.1 µM (active)

COc1ccc(-c2cc(C)nc(SCC(=O)c3cccc([N+](=O)[O-])c3)n2)cc1
CC50 [2]: > 40 µM (active)

CCN(CC)CCNC(=O)Cc1nn(Cc2ccccc2)c(=O)c2ccccc12
AC50 [11]: > 20 µM (inactive)

C[C@H](CO)N1C[C@H](C)[C@H](CN(C)C(=O)NC2CCCCC2)Oc2cc(C#Cc3cccc(F)c3)ccc2S1(=O)=O
AC50 [21]: 6.2 µM (active)
AC50 [22]: 14.1 µM (active)

OC[C@@H]1[C@H](c2ccc(C#CC3CCCC3)cc2)[C@H]2CN(CCC(F)(F)F)CCCCN12
AC50 [22]: 10.4 µM (active)
AC50 [23]: 1.43 µM (active)
AC50 [24]: 9.12 µM (active)

O=C1CS/C(=N\c2ccc(O)cc2)N1c1ccc(O)cc1
IC50 [1]: 11.4 µM (active)
AC50 [10]: 3.26 µM (active)
IC50 [25]: 51.9 µM (active)

O=C1c2ccccc2-[n+]2ccc3c([nH]c4ccccc43)c21 [FASCAPLYSIN]
AC50 [22]: 0.358 µM (active)
